One assay has as its system SGK2. In words: Inhibition of kinase activity by SGK2 inhibitory compounds, single concentration. Type of assay: biochemical. The following applies: 10 μM compound. The text has this: A library of compounds was screened for inhibitors of SGK2 and PAK3 activity by assaying phosphorylation of a generic peptide substrate either directly; or indirectly by inhibiting upstream kinase PDK1 from activating the enzyme in vitro. In both cases, the phosphorylated substrate was detected using a specific anti-phospho peptide antibody that is coupled with Eu^3+ Cryptate and XL665 conjugated with streptavidin. […] All initial hits were re-assayed as a dose response series with eight 3-fold dilutions and resulting final concentrations ranged from 0.9 nM to 20 μM.

In another assay the test system is HeLa cells. In words: Cell-based assay in HeLa cells (AlamarBlue cell viability), EC50. Also noted: species or system human. As to the method:
HeLa cells (ATCC) were maintained in Dulbecco's modified Eagle medium (DMEM) supplemented with 10% fetal bovine serum and 1% Penicillin/Streptomycin. Approximately 200 to 500 cells per well were seeded in a 96 well tissue culture plates. Following 24 h growth in normal DMEM, the individual compounds were warmed up to room temperature and diluted in DMEM to their according concentration and then immediately added to the wells. One column on each assay plate contained DMEM only (“neg. control”) and one column contained untreated HeLa cells as “pos. control”. Cells were treated with the compounds at various cell densities and for treatment periods ranging between 75 hrs and approx. 200 hrs. To control for cell viability, we assayed plates using AlamarBlue° (Invitrogen), which uses a redox reaction to measure metabolically active viable cells. At each time point the culture media was removed and a solution of 10% AlamarBlue reagent and DMEM was added to each well to measure cell viability. Fluorescence was measured after 1-2 hrs incubation at 37 C on a Victor^2 Plate Reader (PerkinElmer).
(§1) Data were analyzed using GraphPad Prism Version 5 (GraphPad Software Inc., La Jolla, Calif., USA). Each compound plate included one column of negative controls, were no enzyme was added, and another column for positive controls when no inhibitor compound was added; these were used to calculate Z′ factors and signal to noise ratios throughout the screen. […] IC50 determinations were done in quadruplicate for each compound using different adding sequences for compound and enzyme-substrate-mix. EC50 determinations were done in triplicate for each compound using different time points. For calculation of IC50 and EC50 concentrations, respectively, mean inhibition dose response curves were fitted to the sigmoidal response equation: Y=Bottom+(Top−Bottom)/(1+10̂((X−LogIC50))) were X is log(compound concentration) and Y is % inhibition, and Bottom and Top are the lower and upper plateau. Km concentrations were determined by non-linear regression curve fitting, using the equation: Y=Vmax*X/(Km+X), where X is the substrate concentration.
Compounds were tested in a cell-based assay (HeLa cells). IC50 and EC50 are expressed in micromolar units.
Background: The colour change of resazurin is a common sign of viable cells or microbes.

In the next assay the target is T1, PAK3 (Homo sapiens, UniProt O75914).
T1 construct: Recombinant human full length PAK3 enzyme was obtained (Invitrogen); purchased Invitrogen
As to the kind of experiment: Enzyme based PAK3 kinase assay (HTRF / TR-FRET), IC50. In kind it is biochemical. Particulars: PAK3 inhibitory compounds; IC50 done in quadruplicate. Here is the method: Recombinant human full length PAK3 enzyme was obtained (Invitrogen), immediately aliquoted and kept in storage buffer as purchased at −80° C. for long term storage. The HTRF® KinEASE™ kit (CisBio) containing 5× stock solution of the enzymatic buffer and 1× detection buffer, STK substrate 2-biotin (S2), a phosphospecific monoclonal Europium-labeled Cryptate antibody, which recognizes a phospholylation epitope of the biotinylated peptide, as donor fluorophore and Stretptavadin-linked XL665 (SA-XL665) representing the acceptor fluorophor were used for TR-FRET assays. The compound library consisted of approximately 125,000 small molecules, including compounds approved by the Food and Drug Administration (FDA), a purified natural products library and commercially available compounds from various vendors. All small molecules generally adhere to Lipinski's rules and have been optimized for maximization of molecular diversity.
An enzyme based kinase assay was carried out using full length recombinant PAK3 kinase. A model biotinylated peptide RRRSLLE (SEQ ID NO:5) was used as the substrate. Detection was done by Homogeneous Time Resolve Fluorescence (HTRF) with an antibody that recognizes the phosphorylation site on the peptide.
TR-FRET assays were carried out as follows. A CRS CataLyst Express robotic arm and a Cybi-well 384 channel simultaneous pipettor were used to carry out the High-Throughput Screen. Kinase reactions were performed in 50 mM HEPES, pH 7.0, 0.02% NaN3, 2 mM MgCl2, 0.01% BSA, 0.1 mM Orthonanadate, 1 mM DTT, 0.001% Tween-20, 0.001% Brij-35 using ProxiPlate-384 Plus white assay plates. […] The kinase reaction was initiated by addition of […] per reaction (25 μM ATP final, at the Km). The reaction was incubated for 30 minutes at room temperature. Reaction was terminated by addition of 10 μl of a premixed solution of EDTA, Europium cryptate-labeled antibody and fluorophore-conjugated streptavadin. After overnight incubation at room temperature, TR-FRET measurements were performed using a PHERAstar HTS microplate reader, and were expressed as ratios of acceptor fluorescence at 665 nm over donor fluorescence at 620 nm.
as §1
Background: TR-FRET usually uses a lanthanide donor and a delayed reading to cut background.

Setting [1] is: 75 h treatment, read-out: EC50 75 h.
Setting [2] is: 150 h treatment, read-out: EC50 150 h.
Where [3] appears, read: read-out: EC50 100 h, 100 h treatment.

Like-named read-outs stand apart in the source and are kept apart here.

T1 sequence (O75914 1-544 isoform O75914-2): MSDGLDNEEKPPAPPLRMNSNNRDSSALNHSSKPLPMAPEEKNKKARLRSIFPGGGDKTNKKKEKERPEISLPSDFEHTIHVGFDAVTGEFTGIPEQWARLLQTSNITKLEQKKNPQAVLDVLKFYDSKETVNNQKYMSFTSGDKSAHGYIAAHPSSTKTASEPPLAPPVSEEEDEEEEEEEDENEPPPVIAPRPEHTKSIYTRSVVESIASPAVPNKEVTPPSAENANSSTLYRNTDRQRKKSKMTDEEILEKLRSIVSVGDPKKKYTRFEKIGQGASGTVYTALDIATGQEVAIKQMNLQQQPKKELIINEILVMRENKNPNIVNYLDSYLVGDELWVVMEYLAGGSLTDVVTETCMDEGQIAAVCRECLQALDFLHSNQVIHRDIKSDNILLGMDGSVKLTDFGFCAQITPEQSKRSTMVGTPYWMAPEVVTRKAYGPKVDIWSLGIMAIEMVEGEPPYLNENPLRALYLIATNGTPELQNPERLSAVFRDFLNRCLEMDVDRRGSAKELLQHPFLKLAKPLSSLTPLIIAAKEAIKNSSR

`COc1ccc(-c2nc(-c3ccc(Sc4ccccc4)cc3)c(-c3ccccc3)[nH]2)cc1` [LDN-0044878]: in the assay on SGK2, the % Inhibition (commonly the share of the control response that was lost under treatment) at 10 μM is reported as 79%. Besides, the EC50 (as a rule, the midpoint of the concentration-response curve) with HeLa cells (setting [1]) is 10.7 µM; in the assay on HeLa cells (setting [2]) it was 11.1 µM; in the assay on HeLa cells (setting [3]), 15.5 µM. The IC50 (usually the concentration that gives 50% inhibition) on PAK3 worked out at 0.03 µM.
In the case of `Cc1cc(C)c(C#N)c(SCC(=O)c2ccc(O)c(O)c2)n1` [LDN-0211955], the EC50 with HeLa cells (setting [1]) came out at 17.6 µM; in the assay on HeLa cells (setting [2]), 23.3 µM; with HeLa cells (setting [3]), 34 µM. The compound also gave a 50% inhibitory concentration (IC50) on PAK3 of 3.53 µM.
Consider `Cc1ccc(-c2c(C#N)c(SCC(=O)c3ccc(O)c(O)c3)nc3c2CCCC3)o1` [LDN-0026056], for which the EC50 in the assay with HeLa cells (setting [1]) came out at 13.9 µM; with HeLa cells (setting [2]) it was 18 µM; with HeLa cells (setting [3]) it was 16.9 µM. At PAK3, this compound yielded an IC50 of 0.69 µM.
Regarding `N#Cc1c(N)nc(SCc2ccccc2)c(C#N)c1-c1ccc(O)cc1` [LDN-0028618], the “% Inhibition at 10 μM” value in the assay with SGK2 came to 87%. In addition, the values for the EC50 with HeLa cells (setting [1]), in the assay with HeLa cells (setting [2]) and in the assay with HeLa cells (setting [3]) were 13.3 µM, 18.1 µM and 16.6 µM, respectively. At PAK3, half-maximal inhibition (IC50) was put at 0.3 µM.
On to `N#Cc1c(N)nc(SCc2ccccc2)c(C#N)c1-c1ccccc1Cl` [LDN-0211958], for which the EC50 in the assay on HeLa cells (setting [1]) amounted to 11.2 µM; with HeLa cells (setting [2]) it was 10.6 µM; in the assay with HeLa cells (setting [3]) it was 11.6 µM. In addition, at PAK3, half-maximal inhibition (IC50) required 0.33 µM.
As for `Cc1cc(-c2ccco2)c(C#N)c(SCC(=O)c2ccc(O)c(O)c2)n1` [LDN-0041012], in the assay with SGK2, the “% Inhibition at 10 μM” value turned out to be 95%. Besides, the values for the EC50 with HeLa cells (setting [1]), in the assay on HeLa cells (setting [2]) and with HeLa cells (setting [3]) were 4.6 µM, 3.4 µM and 4.6 µM, respectively. On PAK3, this compound returned an IC50 of 0.61 µM.
As for `O=C(OC1Cc2c(O)cc(O)cc2OC1c1cc(O)c(O)c(O)c1)c1cc(O)c(O)c(O)c1` (stereo not shown) [LDN-0022369], the “% Inhibition at 10 μM” value in the assay with SGK2 is reported as 92%.
As to `CN1c2ccccc2Sc2cc(N)ccc21` [LDN-0065927], the “% Inhibition at 10 μM” value in the assay with SGK2 is 52%.
Take `CCc1cc(-c2n[nH]cc2-c2ccc(Br)cc2)c(O)cc1O` [LDN-0106197]: the “% Inhibition at 10 μM” value with SGK2 amounted to 67%.
As for `Oc1cc(O)c2c(c1)OC(O)(c1ccc(O)c(O)c1)C(O)C2` (stereo not shown) [LDN-0096696], the “% Inhibition at 10 μM” value in the assay on SGK2 was 84%.
Take `O=C1CC(N2CCCCC2)C=C1Nc1ccc(F)cc1` (stereo not shown) [LDN-0074168]: the “% Inhibition at 10 μM” value in the assay on SGK2 is recorded as 73%.
For `Oc1ccc(Cl)cc1-c1cc(-c2ccco2)n[nH]1` [LDN-0086824], in the assay with SGK2, the “% Inhibition at 10 μM” value is 68%.
The same measure, in the same setting: then `Cc1cccc(NC(=O)CSc2ncnc3c2oc2ccccc23)c1C` [LDN-0107915], with 67%; and `O=c1c(O)cccc2cc(O)c(O)c(O)c12` [LDN-0096727], with 94%; and `CNC(=O)Oc1c(Br)cc2sc(=O)oc2c1Br` [LDN-0072860], with 72%.
Consider `Cc1ccc2c(=O)c(C(=O)c3ccccc3)cn(CC(=O)Nc3cccc(C)c3C)c2n1` [LDN-0130105], for which the “% Inhibition at 10 μM” value in the assay with SGK2 is recorded as 70%.
`Cc1nc(-c2ccccc2)c(-c2ccccc2)[nH]1` [LDN-0091420]: the figures for the concentration giving a half-maximal response (EC50) in the assay on HeLa cells (setting [1]), with HeLa cells (setting [2]) and in the assay on HeLa cells (setting [3]) were 38.2 µM, 42.5 µM and 40.7 µM, respectively. For the same compound, the half-inhibitory concentration (IC50) against PAK3 was 10.1 µM.
Regarding `c1coc(C2=Nc3cccc4cccc(c34)N2)c1` [LDN-0088682], the “% Inhibition at 10 μM” value in the assay with SGK2 came out at 80%.
As for `N#CC1=C(NC(=O)Cc2ccccc2)c2ccccc2CC12CCCCC2` [LDN-0047862], in the assay on SGK2, the “% Inhibition at 10 μM” value was 95%.
As for `Cc1ccccc1-c1c(C#N)c(N)nc(SCc2ccccc2)c1C#N` [LDN-0211959], the concentration giving a half-maximal response (EC50) was determined as 11.1 µM with HeLa cells (setting [1]), 10.4 µM with HeLa cells (setting [2]) and 12.7 µM in the assay on HeLa cells (setting [3]). Besides, the half-maximal inhibitory concentration (IC50) on PAK3 turned out to be 0.28 µM.
On to `O=C(O)C1C2CC=CC2c2cc(Br)cc3c2N1CC1CC=CC31` (stereo not shown) [LDN-0088050], for which, in the assay with SGK2, the “% Inhibition at 10 μM” value worked out at 67%.
For the compound `COc1cccc(C2Nc3cccc4cccc(c34)N2)c1OC` [LDN-0045022], in the assay with SGK2, the “% Inhibition at 10 μM” value came to 73%.
Still for that read-out and setting: the figure for `CCOC(=O)C1C(=O)NC(SCC(=O)Nc2ccc(Br)cc2)=C(C#N)C1c1ccccc1OCC` (stereo not shown) [LDN-0028584] is 68%; for `Oc1ccc(-c2nc(-c3ccc4sc5ccccc5c4c3)c(-c3ccccc3)[nH]2)cc1` [LDN-0044883] it is 64%.
For the compound `CN(C)c1ccc2nc(SCC(=O)c3ccccc3)sc2c1` [LDN-0073108], in the assay with SGK2, the “% Inhibition at 10 μM” value is on record as 70%.
On the same count and under the same terms, the figure for `O=C(O)c1cc2c3c(c1)C1C=CCC1CN3CC1CC=CC21` (stereo not shown) [LDN-0043107] is 73%; for `CCC(=O)N1CCc2cc(Br)cc(S(=O)(=O)Nc3ccc(Br)cc3)c21` [LDN-0074939] it is 67%.
Still for that read-out and setting: then `Cc1cc(N)c2ccccc2[n+]1CCCCCCCCCC[n+]1c(C)cc(N)c2ccccc21.[Cl-].[Cl-]` [LDN-0096422], with 79%.

The record behind these values is US20120208204A1, “Compositions and Methods for Inhibiting Tumor Growth” (The Brigham and Women's Hospital, Inc., priority 2009, published 2012).
